ChEMBL document CHEMBL1145410 (Bioorg Med Chem Lett, 2007)

Key:
Dipeptidyl peptidase 8 = Dipeptidyl peptidase 8 (Homo sapiens, UniProt Q6V1X1); assay: Inhibition of DPP8
Dipeptidyl peptidase 9 = Dipeptidyl peptidase 9 (Homo sapiens, UniProt Q86TI2); assay: Inhibition of DPP9
Dipeptidyl peptidase 2 = Dipeptidyl peptidase 2 (Homo sapiens, UniProt Q9UHL4); assay: Inhibition of QPP
Dipeptidyl peptidase 4 = Dipeptidyl peptidase 4 (Homo sapiens, UniProt P27487); assay: Inhibition of DPP4
[1] = biological target: Voltage-gated inwardly rectifying potassium channel KCNH2 (Homo sapiens, UniProt Q12809); assay: Inhibition of human ERG potassium channel
[2] = Inhibition of rabbit calcium channel L type; set-up: species or system Oryctolagus cuniculus
Cytochrome P450 2D6 = Cytochrome P450 2D6 (Homo sapiens, UniProt P10635); assay: Inhibition of Cyp2D6; assay type: ADME
[3] = Plasma clearance in rat at 1 mg/kg iv or 2 mg/kg po; assay type: ADME, organism-based
[4] = Half life in rat at 1 mg/kg iv or 2 mg/kg po; assay type: ADME, organism-based; details: in vivo
[5] = Bioavailability iin rat at 1 mg/kg iv or 2 mg/kg po; assay type: ADME, organism-based; details: in vivo

Dipeptidyl peptidase 4, sequence (P27487 whole entry): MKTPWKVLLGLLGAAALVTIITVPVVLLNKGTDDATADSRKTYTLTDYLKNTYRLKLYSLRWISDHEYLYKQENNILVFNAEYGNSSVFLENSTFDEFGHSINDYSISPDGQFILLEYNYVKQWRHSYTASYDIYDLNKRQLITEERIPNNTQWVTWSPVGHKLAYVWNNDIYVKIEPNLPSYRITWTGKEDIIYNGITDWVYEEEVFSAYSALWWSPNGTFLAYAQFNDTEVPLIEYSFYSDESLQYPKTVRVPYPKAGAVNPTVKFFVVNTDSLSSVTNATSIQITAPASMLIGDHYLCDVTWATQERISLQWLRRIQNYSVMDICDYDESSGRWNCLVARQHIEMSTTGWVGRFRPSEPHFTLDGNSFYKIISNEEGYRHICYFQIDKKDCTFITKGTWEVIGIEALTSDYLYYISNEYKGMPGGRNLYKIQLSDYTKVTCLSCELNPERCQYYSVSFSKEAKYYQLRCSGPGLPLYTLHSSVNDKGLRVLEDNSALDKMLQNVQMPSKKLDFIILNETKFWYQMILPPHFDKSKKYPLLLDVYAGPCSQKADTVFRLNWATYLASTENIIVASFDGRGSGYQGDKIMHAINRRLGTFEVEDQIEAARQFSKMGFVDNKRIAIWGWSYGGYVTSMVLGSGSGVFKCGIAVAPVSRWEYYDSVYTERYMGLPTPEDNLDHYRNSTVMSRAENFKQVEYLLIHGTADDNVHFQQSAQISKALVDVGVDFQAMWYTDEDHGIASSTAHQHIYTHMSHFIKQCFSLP
Dipeptidyl peptidase 9, sequence (Q86TI2 whole entry): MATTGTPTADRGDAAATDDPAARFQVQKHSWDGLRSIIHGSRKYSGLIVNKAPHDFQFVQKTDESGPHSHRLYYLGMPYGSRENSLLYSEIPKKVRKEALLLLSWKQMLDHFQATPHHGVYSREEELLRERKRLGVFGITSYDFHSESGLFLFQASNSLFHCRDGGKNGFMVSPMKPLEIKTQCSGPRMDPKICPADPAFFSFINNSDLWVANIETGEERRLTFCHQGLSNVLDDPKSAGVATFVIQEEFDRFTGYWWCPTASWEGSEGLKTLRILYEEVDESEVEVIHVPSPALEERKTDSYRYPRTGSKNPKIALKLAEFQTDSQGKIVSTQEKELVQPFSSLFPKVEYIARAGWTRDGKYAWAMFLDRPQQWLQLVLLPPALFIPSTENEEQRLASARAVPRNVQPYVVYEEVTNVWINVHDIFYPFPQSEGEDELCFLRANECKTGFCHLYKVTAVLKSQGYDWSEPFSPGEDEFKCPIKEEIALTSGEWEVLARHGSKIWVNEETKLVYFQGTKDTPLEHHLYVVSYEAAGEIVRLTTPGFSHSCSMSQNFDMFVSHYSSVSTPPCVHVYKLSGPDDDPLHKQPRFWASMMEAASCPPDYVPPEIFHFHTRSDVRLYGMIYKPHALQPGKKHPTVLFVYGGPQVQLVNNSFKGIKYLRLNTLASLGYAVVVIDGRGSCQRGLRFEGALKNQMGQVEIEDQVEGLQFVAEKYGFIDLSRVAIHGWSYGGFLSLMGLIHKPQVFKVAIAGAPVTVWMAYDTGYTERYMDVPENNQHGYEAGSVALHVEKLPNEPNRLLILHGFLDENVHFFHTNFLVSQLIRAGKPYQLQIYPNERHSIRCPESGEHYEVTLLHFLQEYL
Cytochrome P450 2D6, sequence (P10635 whole entry): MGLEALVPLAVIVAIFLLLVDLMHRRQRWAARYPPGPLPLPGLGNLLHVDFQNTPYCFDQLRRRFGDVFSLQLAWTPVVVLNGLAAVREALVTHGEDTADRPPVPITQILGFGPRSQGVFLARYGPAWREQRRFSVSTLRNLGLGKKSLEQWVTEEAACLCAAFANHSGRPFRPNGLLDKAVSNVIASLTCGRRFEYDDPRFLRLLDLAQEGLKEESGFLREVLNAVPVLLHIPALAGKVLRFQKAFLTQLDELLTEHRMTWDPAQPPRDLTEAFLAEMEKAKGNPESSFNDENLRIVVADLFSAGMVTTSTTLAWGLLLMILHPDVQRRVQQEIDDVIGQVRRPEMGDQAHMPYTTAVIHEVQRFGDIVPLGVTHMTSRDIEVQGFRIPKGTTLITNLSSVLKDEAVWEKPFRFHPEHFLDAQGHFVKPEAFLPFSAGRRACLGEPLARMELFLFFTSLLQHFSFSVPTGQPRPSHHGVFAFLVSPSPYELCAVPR
Dipeptidyl peptidase 8, sequence (Q6V1X1 whole entry): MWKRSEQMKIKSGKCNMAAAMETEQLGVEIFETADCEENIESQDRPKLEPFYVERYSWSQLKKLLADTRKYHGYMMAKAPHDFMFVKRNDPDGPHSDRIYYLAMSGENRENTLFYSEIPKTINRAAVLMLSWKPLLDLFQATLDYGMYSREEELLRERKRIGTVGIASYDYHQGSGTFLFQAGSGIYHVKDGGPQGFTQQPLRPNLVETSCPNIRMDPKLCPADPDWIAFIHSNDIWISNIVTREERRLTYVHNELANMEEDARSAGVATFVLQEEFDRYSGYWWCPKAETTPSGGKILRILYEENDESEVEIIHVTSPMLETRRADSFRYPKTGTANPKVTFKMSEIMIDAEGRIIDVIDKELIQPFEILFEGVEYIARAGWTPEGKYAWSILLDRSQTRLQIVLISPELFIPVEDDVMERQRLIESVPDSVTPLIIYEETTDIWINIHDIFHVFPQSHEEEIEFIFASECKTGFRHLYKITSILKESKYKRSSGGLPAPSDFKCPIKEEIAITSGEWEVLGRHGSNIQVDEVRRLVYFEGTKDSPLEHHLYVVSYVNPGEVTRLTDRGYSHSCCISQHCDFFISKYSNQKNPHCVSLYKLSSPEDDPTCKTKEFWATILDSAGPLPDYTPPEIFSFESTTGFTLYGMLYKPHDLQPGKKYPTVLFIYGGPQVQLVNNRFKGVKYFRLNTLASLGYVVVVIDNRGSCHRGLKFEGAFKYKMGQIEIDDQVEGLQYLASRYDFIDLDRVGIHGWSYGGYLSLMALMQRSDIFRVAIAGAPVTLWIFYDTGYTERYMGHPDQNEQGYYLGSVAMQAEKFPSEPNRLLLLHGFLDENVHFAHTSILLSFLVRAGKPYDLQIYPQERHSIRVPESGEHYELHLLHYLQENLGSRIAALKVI
Voltage-gated inwardly rectifying potassium channel KCNH2, sequence (Q12809 whole entry): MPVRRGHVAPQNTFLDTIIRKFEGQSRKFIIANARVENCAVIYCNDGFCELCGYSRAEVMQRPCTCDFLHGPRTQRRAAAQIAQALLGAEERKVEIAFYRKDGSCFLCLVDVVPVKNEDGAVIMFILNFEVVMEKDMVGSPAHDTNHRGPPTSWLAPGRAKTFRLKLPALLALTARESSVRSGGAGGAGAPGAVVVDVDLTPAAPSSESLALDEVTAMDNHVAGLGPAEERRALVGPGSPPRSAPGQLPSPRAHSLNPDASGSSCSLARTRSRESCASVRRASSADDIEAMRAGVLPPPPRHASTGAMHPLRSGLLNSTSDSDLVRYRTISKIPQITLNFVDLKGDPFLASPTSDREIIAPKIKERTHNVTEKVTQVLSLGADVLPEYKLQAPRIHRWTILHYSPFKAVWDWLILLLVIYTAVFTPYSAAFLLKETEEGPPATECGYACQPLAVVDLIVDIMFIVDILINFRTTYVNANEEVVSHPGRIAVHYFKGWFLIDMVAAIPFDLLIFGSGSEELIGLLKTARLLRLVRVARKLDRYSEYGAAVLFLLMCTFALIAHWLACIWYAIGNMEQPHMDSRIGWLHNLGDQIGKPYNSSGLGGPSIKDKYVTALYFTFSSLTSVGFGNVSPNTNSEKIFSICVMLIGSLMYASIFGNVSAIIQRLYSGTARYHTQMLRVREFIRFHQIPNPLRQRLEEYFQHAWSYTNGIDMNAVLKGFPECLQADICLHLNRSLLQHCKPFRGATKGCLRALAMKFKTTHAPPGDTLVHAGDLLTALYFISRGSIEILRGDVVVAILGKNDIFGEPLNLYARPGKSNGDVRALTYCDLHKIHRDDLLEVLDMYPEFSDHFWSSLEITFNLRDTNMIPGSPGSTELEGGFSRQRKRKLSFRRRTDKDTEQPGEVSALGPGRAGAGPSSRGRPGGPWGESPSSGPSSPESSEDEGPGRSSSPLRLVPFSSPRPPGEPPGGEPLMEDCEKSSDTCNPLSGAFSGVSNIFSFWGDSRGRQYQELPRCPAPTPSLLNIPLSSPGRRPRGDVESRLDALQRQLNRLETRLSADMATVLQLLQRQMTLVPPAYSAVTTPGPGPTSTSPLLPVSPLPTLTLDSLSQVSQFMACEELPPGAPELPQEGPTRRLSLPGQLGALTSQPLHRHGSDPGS

Compound | IC50 (Dipeptidyl peptidase 8) [µM] | IC50 (Dipeptidyl peptidase 9) [µM] | IC50 (Dipeptidyl peptidase 2) [µM] | IC50 (Dipeptidyl peptidase 4) [µM] | IC50 [2] [µM] | IC50 (Cytochrome P450 2D6) [µM] | clearance [3] [mL/min/kg] | half-life [4] [h] | bioavailability [5] [%] | IC50 [1] [µM]
N[C@H]1CN(c2ncccc2C(F)(F)F)CC[C@@H]1c1cc(F)c(F)cc1F | > 100 | > 100 |  |  |  |  |  |  |  | 
N[C@H]1CN(c2ccc3nc(=O)ccn3n2)CC[C@@H]1c1cc(F)c(F)cc1F.O=C(O)C(F)(F)F | > 100 | 19 | > 100 | 0.0012 | 84.6 | 55.4 | 35 | 1.6 | 12 | 100
Cc1cc(=O)n2nc(N3CC[C@H](c4cc(F)c(F)cc4F)[C@@H](N)C3)ccc2n1.O=C(O)C(F)(F)F | > 100 | > 100 | > 100 | 0.008 | 18.5 | 16.2 | 18 | 1.4 | 74 | 33.2
N[C@H]1CN(c2ccn3cnnc3n2)CC[C@@H]1c1cc(F)c(F)cc1F.O=C(O)C(F)(F)F | 30 | 43 | > 100 | 0.026 |  | 20.6 | 54 | 1.5 | 19 | 
N[C@H]1CN(c2ccc3nc(C(F)(F)F)cn3n2)CC[C@@H]1c1cc(F)c(F)cc1F | 49 | 75 | 64 | 0.022 |  |  |  |  |  | 
N[C@H]1CN(c2ccc3nc(C(F)(F)F)nn3n2)CC[C@@H]1c1cc(F)c(F)cc1F | > 100 | > 100 | > 100 | 0.005 | 1 | 0.1 |  |  |  | 8.1
CCc1nnc2ccc(N3CC[C@H](c4cc(F)c(F)cc4F)[C@@H](N)C3)nn12 |  |  | 90 |  |  |  |  |  |  | 
N[C@H]1CN(c2cnc3cccnc3n2)CC[C@@H]1c1cc(F)c(F)cc1F | 66 | > 100 | 58 | 0.13 |  |  |  |  |  | 
N[C@H]1CN(c2ccc3nnc(C(F)(F)F)n3n2)CC[C@@H]1c1cc(F)c(F)cc1F | > 100 | 90 | 96 | 0.009 |  |  |  |  |  | 
N[C@H]1CN(c2ccncn2)CC[C@@H]1c1cc(F)c(F)cc1F | 60 | 67 | > 100 | 0.037 | 26.9 |  |  |  |  | 
N[C@H]1CN(c2ccc3nncn3n2)CC[C@@H]1c1cc(F)c(F)cc1F | > 100 | > 100 | > 100 | 0.031 |  |  |  |  |  | 
N[C@H]1CN(c2cnc3cncnc3n2)CC[C@@H]1c1cc(F)c(F)cc1F |  |  | 87 |  |  |  |  |  |  | 
N[C@H]1CN(c2cnc3nccnc3n2)CC[C@@H]1c1cc(F)c(F)cc1F.O=C(O)C(F)(F)F | 54 | > 100 | 93 | 0.013 | 4.1 | 11.6 | 62 | 1.4 | 45 | 
Cn1nc2ccc(N3CC[C@H](c4cc(F)c(F)cc4F)[C@@H](N)C3)nn2c1=O |  |  | 57 |  |  |  |  |  |  | 
Cc1nnc2ccc(N3CC[C@H](c4cc(F)c(F)cc4F)[C@@H](N)C3)nn12.O=C(O)C(F)(F)F | > 100 | > 100 | 74 | 0.006 | 2 |  | 12 | 4.7 | 100 | 
N[C@H]1CN(c2cccnn2)CC[C@@H]1c1cc(F)c(F)cc1F | 40 | 44 | > 100 | 0.063 |  |  |  |  |  | 
N[C@H]1CN(c2ncccn2)CC[C@@H]1c1cc(F)c(F)cc1F | 33 | 58 | 54 | 0.09 |  |  |  |  |  | 
N[C@H]1CN(c2cccnc2)CC[C@@H]1c1cc(F)c(F)cc1F | 54 | 36 | 82 | 0.144 |  |  |  |  |  | 

More lines, in order of falling IC50 (Dipeptidyl peptidase 2), values ahead:

IC50 (Dipeptidyl peptidase 8) [µM] | IC50 (Dipeptidyl peptidase 9) [µM] | IC50 (Dipeptidyl peptidase 2) [µM] | IC50 (Dipeptidyl peptidase 4) [µM] | IC50 [2] [µM] | IC50 (Cytochrome P450 2D6) [µM] | clearance [3] [mL/min/kg] | half-life [4] [h] | bioavailability [5] [%] | Compound | IC50 [1] [µM]
34 | 38 | 50 | 0.058 |  |  |  |  |  | N[C@H]1CN(c2ccccn2)CC[C@@H]1c1cc(F)c(F)cc1F | 
43 | 35 | 46 | 0.125 |  |  |  |  |  | N[C@H]1CN(c2ccncc2)CC[C@@H]1c1cc(F)c(F)cc1F | 
80 | > 100 | 46 | 0.007 |  |  |  |  |  | Cc1nc2ccc(N3CC[C@H](c4cc(F)c(F)cc4F)[C@@H](N)C3)nc2c(=O)[nH]1 | 
> 100 | 57 | 41 | 0.002 |  |  |  |  |  | Cn1c(C2CC2)nc2ccc(N3CC[C@H](c4cc(F)c(F)cc4F)[C@@H](N)C3)nc21 | 
5.8 | 9.6 | 40 | 0.014 |  |  |  |  |  | N#Cc1ccc(N2CC[C@H](c3cc(F)c(F)cc3F)[C@@H](N)C2)nc1 | 
25 | 50 | 35 | 0.007 |  |  |  |  |  | N[C@H]1CN(c2ccc3nccnc3n2)CC[C@@H]1c1cc(F)c(F)cc1F | 
76 | 40 | 33 | 0.082 |  |  |  |  |  | N[C@H]1CN(c2cnccn2)CC[C@@H]1c1cc(F)c(F)cc1F | 
> 100 | > 100 | 32 | 3.7 |  |  |  |  |  | N[C@H]1CN(c2nccc3ccccc23)CC[C@@H]1c1cc(F)c(F)cc1F | 
 |  | 28 |  |  |  |  |  |  | N[C@H]1CN(c2ccc(C(F)(F)F)cn2)CC[C@@H]1c1cc(F)c(F)cc1F | 
 |  | 27 |  |  |  |  |  |  | N[C@H]1CN(c2cnc3ccccc3n2)CC[C@@H]1c1cc(F)c(F)cc1F | 
10 | 13 | 21 | 0.054 |  |  |  |  |  | N[C@H]1CN(c2ccc3ccccc3n2)CC[C@@H]1c1cc(F)c(F)cc1F | 
 |  | 15 |  |  |  |  |  |  | N[C@H]1CN(c2ccc3nnc(-c4ccc(F)cc4)n3n2)CC[C@@H]1c1cc(F)c(F)cc1F | 
28 | 32 | 9.9 | 0.008 |  |  |  |  |  | N[C@H]1CN(c2ccc3ncnc(C4CC4)c3n2)CC[C@@H]1c1cc(F)c(F)cc1F | 
33 | 39 | 5.5 | 0.21 |  |  |  |  |  | N[C@H]1CN(c2ccccc2)CC[C@@H]1c1cc(F)c(F)cc1F | 
> 100 | 21 | 5.3 | 0.111 |  |  |  |  |  | N[C@H]1CN(c2cccc(C(F)(F)F)n2)CC[C@@H]1c1cc(F)c(F)cc1F | 
